From patent US11998539B2, “Substituted aminoquinolones as DGKalpha inhibitors for immune activation” (Bayer Aktiengesellschaft, priority 2019, dated 2024)

target: DGKα (Homo sapiens (Human), UniProt P23743); assay: Human DGKα kinase activity inhibition assay (ADP-Glo); assay type: biochemical; conditions: recombinant full-length human DGKα, 55 μM ATP, 7 μM 1,2-dioleoyl-sn-glycerol, read-out: IC50 values of examples in in vitro human DGKa kinase activity inhibition assays
How it was run: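 Activity was measured as ADP production, detected by luciferase luminescence after removal of unused ATP. The enzyme was baculovirus-expressed full-length human DGKα with a C-terminal FLAG tag. The substrate was 1,2-dioleoyl-sn-glycerol in detergent micelles, and compounds came from 100× DMSO solutions.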

Sequence of DGKα (P23743 other isoform, or with tags, fused parts or gaps): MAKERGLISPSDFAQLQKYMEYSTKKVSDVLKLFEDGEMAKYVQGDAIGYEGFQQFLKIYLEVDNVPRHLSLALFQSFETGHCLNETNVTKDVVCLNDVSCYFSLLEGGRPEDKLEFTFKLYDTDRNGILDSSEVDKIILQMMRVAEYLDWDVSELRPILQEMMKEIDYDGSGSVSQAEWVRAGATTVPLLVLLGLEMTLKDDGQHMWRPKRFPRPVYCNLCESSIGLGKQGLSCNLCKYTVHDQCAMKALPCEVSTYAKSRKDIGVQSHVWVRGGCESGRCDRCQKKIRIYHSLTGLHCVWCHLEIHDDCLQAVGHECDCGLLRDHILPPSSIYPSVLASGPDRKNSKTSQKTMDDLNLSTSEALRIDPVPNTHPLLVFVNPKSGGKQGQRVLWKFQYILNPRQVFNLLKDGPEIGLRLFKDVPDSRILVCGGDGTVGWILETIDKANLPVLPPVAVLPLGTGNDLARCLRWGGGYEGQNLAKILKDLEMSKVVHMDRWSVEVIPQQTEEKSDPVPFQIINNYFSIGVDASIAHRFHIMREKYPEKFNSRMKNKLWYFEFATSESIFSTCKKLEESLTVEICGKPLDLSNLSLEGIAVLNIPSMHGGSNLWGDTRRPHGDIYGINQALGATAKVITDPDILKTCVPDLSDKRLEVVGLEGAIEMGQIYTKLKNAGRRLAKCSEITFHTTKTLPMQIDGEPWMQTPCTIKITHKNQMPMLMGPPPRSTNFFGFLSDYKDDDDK

Compared with `Cn1c(=O)c(C#N)c(N2CCC(c3cccc4cnccc34)CC2)c2ccccc21` [Example 78, 4-[4-(isoquinolin-5-yl)piperidin-1-yl]-1-methyl-2-oxo-1,2-dihydroquinoline-3-carbonitrile], `Cn1c(=O)c(C#N)c(N2CCC(c3cccc4occc34)CC2)c2ccccc21` [Example 101, 4-[4-(1-benzofuran-4-yl)piperidin-1-yl]-1-methyl-2-oxo-1,2-dihydroquinoline-3-carbonitrile] is 8.7-fold lower in IC50: 104 nM for the first, 12 nM for the second. The second is the more potent here.

Compared with `Cn1c(=O)c(C#N)c(N2CCC(c3cccc4nccnc34)CC2)c2ccccc21` [Example 79, 1-methyl-2-oxo-4-[4-(quinoxalin-5-yl)piperidin-1-yl]-1,2-dihydroquinoline-3-carbonitrile], `Cc1ccccc1C1CCN(c2c(C#N)c(=O)n(C)c3ccccc23)CC1` [Example 82, 1-methyl-4-[4-(2-methylphenyl)piperidin-1-yl]-2-oxo-1,2-dihydroquinoline-3-carbonitrile] is 9.5-fold lower in IC50: 104 nM for the first, 11 nM for the second.

Compared with `Cn1c(=O)c(C#N)c(N2CCC(c3cccc(S(C)(=O)=O)c3)CC2)c2ccccc21` [Example 80, 4-{4-[3-(methanesulfonyl)phenyl]piperidin-1-yl}-1-methyl-2-oxo-1,2-dihydroquinoline-3-carbonitrile], `Cn1c(=O)c(C#N)c(N2CCC(c3cccc(Br)c3)CC2)c2ccccc21` [Example 85] is 6.2-fold lower in IC50: 333 nM for the first, 54 nM for the second. The second is the more potent here.

Compared with `Cc1ccc(C2CCN(c3c(C#N)c(=O)n(C)c4ccccc34)CC2)cc1` [Example 83, 1-methyl-4-[4-(4-methylphenyl)piperidin-1-yl]-2-oxo-1,2-dihydroquinoline-3-carbonitrile], `Cn1c(=O)c(C#N)c(N2CCC(c3ccc(Br)cc3)CC2)c2ccccc21` [Example 88, 4-[4-(4-bromophenyl)piperidin-1-yl]-1-methyl-2-oxo-1,2-dihydroquinoline-3-carbonitrile] is 11-fold higher in IC50: 4.4 nM for the first, 47 nM for the second. The first is the more potent here.

First: Cn1c(=O)c(C#N)c(N2CCC(c3cc(Cl)cc(Cl)c3)CC2)c2ccccc21 [Example 84, 4-[4-(3,5-dichlorophenyl)piperidin-1-yl]-1-methyl-2-oxo-1,2-dihydroquinoline-3-carbonitrile]
Second: Cn1c(=O)c(C#N)c(N2CCC(c3cccc(C(F)F)c3)CC2)c2ccccc21 [Example 87, 4-{4-[3-(difluoromethyl)phenyl]piperidin-1-yl}-1-methyl-2-oxo-1,2-dihydroquinoline-3-carbonitrile]
The IC50 of the first is 7.3-fold higher: 52 nM for the first, 7.1 nM for the second. The second is the more potent here.

Compared with `Cn1c(=O)c(C#N)c(N2CCC(c3ccc(C#N)cc3)CC2)c2ccccc21` [Example 86, 4-[4-(4-cyanophenyl)piperidin-1-yl]-1-methyl-2-oxo-1,2-dihydroquinoline-3-carbonitrile], `COc1ccc(C2CCN(c3c(C#N)c(=O)n(C)c4cc(C#N)ccc34)CC2)cc1` [Example 93, 4-[4-(4-methoxyphenyl)piperidin-1-yl]-1-methyl-2-oxo-1,2-dihydroquinoline-3,7-dicarbonitrile] is 4.9-fold lower in IC50: 54 nM for the first, 11 nM for the second.

`COc1ccc(C2CCN(c3c(C#N)c(=O)n(C)c4cc(Br)ccc34)CC2)cc1` [Example 89, 7-bromo-4-[4-(4-methoxyphenyl)piperidin-1-yl]-1-methyl-2-oxo-1,2-dihydroquinoline-3-carbonitrile] and `COc1ccc(C2CCN(c3c(C#N)c(=O)n(C)c4cc(C)ccc34)CC2)cc1` [Example 91, 4-[4-(4-methoxyphenyl)piperidin-1-yl]-1,7-dimethyl-2-oxo-1,2-dihydroquinoline-3-carbonitrile] are within 1.5-fold of each other in IC50: 2.1 nM for the first, 3.1 nM for the second.

First: Cn1c(=O)c(C#N)c(N2CCC(c3ccccc3)CC2)c2ccc(Br)cc21 [Example 90, 7-bromo-1-methyl-2-oxo-4-(4-phenylpiperidin-1-yl)-1,2-dihydroquinoline-3-carbonitrile]
Second: COc1ccc(C2CCN(c3c(C#N)c(=O)n(C)c4cc(-c5ccccc5)ccc34)CC2)cc1 [Example 92, 4-[4-(4-methoxyphenyl)piperidin-1-yl]-1-methyl-2-oxo-7-phenyl-1,2-dihydroquinoline-3-carbonitrile]
The IC50 of the first is 1.8-fold lower: 5.5 nM for the first, 9.8 nM for the second.

Compared with `COc1ccc(C2CCN(c3c(C#N)c(=O)n(C)c4cc(N5CCCC5=O)ccc34)CC2)cc1` [Example 96, 4-[4-(4-methoxyphenyl)piperidin-1-yl]-1-methyl-2-oxo-7-(2-oxopyrrolidin-1-yl)-1,2-dihydroquinoline-3-carbonitrile], `COc1ccc(C2CCN(c3c(C#N)c(=O)n(C)c4cc(C5=CCOCC5)ccc34)CC2)cc1` [Example 100, 7-(3,6-dihydro-2H-pyran-4-yl)-4-[4-(4-methoxyphenyl)piperidin-1-yl]-1-methyl-2-oxo-1,2-dihydroquinoline-3-carbonitrile] is 8.7-fold lower in IC50: 20 nM for the first, 2.3 nM for the second. The second is the more potent here.

First: COc1ccc(C2CCN(c3c(C#N)c(=O)n(C)c4cc(C5COC5)ccc34)CC2)cc1 [Example 97, 4-[4-(4-methoxyphenyl)piperidin-1-yl]-1-methyl-7-(oxetan-3-yl)-2-oxo-1,2-dihydroquinoline-3-carbonitrile]
Second: COc1ccc(C2CCN(c3c(C(N)=O)c(=O)n(C)c4cc(C5COC5)ccc34)CC2)cc1 [Example 115, 4-[4-(4-methoxyphenyl)piperidin-1-yl]-1-methyl-7-(oxetan-3-yl)-2-oxo-1,2-dihydroquinoline-3-carboxamide]
The IC50 of the first is 1.6-fold higher: 33 nM for the first, 20 nM for the second. The second is the more potent here.

First: COc1ccc(C2CCN(c3c(C#N)c(=O)n(C)c4cc(N=S(C)(C)=O)ccc34)CC2)cc1 [Example 99, 7-{[dimethyl(oxo)-λ^6-sulfanylidene]amino}-4-[4-(4-methoxyphenyl)piperidin-1-yl]-1-methyl-2-oxo-1,2-dihydroquinoline-3-carbonitrile]
Second: COc1ccc(C2CCN(c3c(C(N)=O)c(=O)n(C)c4ccccc34)CC2)cc1 [Example 112, 4-[4-(4-methoxyphenyl)piperidin-1-yl]-1-methyl-2-oxo-1,2-dihydroquinoline-3-carboxamide]
The IC50 of the first is 14-fold higher: 64 nM for the first, 4.5 nM for the second. The second is the more potent here.

First: CC(C)Oc1ccc(C2CCN(c3c(C(N)=O)c(=O)n(C)c4ccccc34)CC2)cc1 [Example 102, 1-methyl-2-oxo-4-(4-{4-[(propan-2-yl)oxy]phenyl}piperidin-1-yl)-1,2-dihydroquinoline-3-carboxamide]
Second: Cn1c(=O)c(C(N)=O)c(N2CCC(c3ccc(OC(F)(F)F)cc3)CC2)c2ccccc21 [Example 108, 1-methyl-2-oxo-4-{4-[4-(trifluoromethoxy)phenyl]piperidin-1-yl}-1,2-dihydroquinoline-3-carboxamide]
The IC50 of the first is 6-fold lower: 0.3 nM for the first, 1.8 nM for the second.

Compared with `CC(C)c1ccc2oc(C3(C)CCN(c4c(C(N)=O)c(=O)n(C)c5ccccc45)CC3)nc2c1` [Example 103, 1-methyl-4-{4-methyl-4-[5-(propan-2-yl)-1,3-benzoxazol-2-yl]piperidin-1-yl}-2-oxo-1,2-dihydroquinoline-3-carboxamide], `Cn1c(=O)c(C(N)=O)c(N2CCC(C)(c3nc4ccccc4o3)CC2)c2ccccc21` [Example 105, 4-[4-(1,3-benzoxazol-2-yl)-4-methylpiperidin-1-yl]-1-methyl-2-oxo-1,2-dihydroquinoline-3-carboxamide] is 3.2-fold higher in IC50: 0.6 nM for the first, 1.9 nM for the second.

Going from `Cn1c(=O)c(C(N)=O)c(N2CCC(c3nc4ccccc4o3)CC2)c2ccc(Br)cc21` [Example 104, 4-[4-(1,3-benzoxazol-2-yl)piperidin-1-yl]-7-bromo-1-methyl-2-oxo-1,2-dihydroquinoline-3-carboxamide] to `Cc1ccc2oc(C3CCN(c4c(C(N)=O)c(=O)n(C)c5ccccc45)CC3)nc2c1` [Example 107, 1-methyl-4-[4-(5-methyl-1,3-benzoxazol-2-yl)piperidin-1-yl]-2-oxo-1,2-dihydroquinoline-3-carboxamide], the IC50 rises from 0.6 nM to 2.3 nM (3.8-fold).

Compared with `CCC1(c2nc3ccccc3o2)CCN(c2c(C#N)c(=O)n(C)c3ccccc23)CC1` [Example 106, 4-[4-(1,3-benzoxazol-2-yl)-4-ethylpiperidin-1-yl]-1-methyl-2-oxo-1,2-dihydroquinoline-3-carbonitrile], `CCC1(c2nc3cc(C)ccc3o2)CCN(c2c(C#N)c(=O)n(C)c3ccccc23)CC1` [Example 140, 4-[4-ethyl-4-(5-methyl-1,3-benzoxazol-2-yl)piperidin-1-yl]-1-methyl-2-oxo-1,2-dihydroquinoline-3-carbonitrile] is 1.8-fold higher in IC50: 0.9 nM for the first, 1.6 nM for the second. The first is the more potent here.

First: Cn1c(=O)c(C(N)=O)c(N2CCC(c3nc4cc(F)c(F)cc4o3)CC2)c2ccccc21 [Example 109, 4-[4-(5,6-difluoro-1,3-benzoxazol-2-yl)piperidin-1-yl]-1-methyl-2-oxo-1,2-dihydroquinoline-3-carboxamide]
Second: Cn1c(=O)c(C(N)=O)c(N2CCC(c3nc4ccccc4s3)CC2)c2ccccc21 [Example 113, 4-[4-(1,3-benzothiazol-2-yl)piperidin-1-yl]-1-methyl-2-oxo-1,2-dihydroquinoline-3-carboxamide]
The IC50 of the first is 1.7-fold lower: 2.1 nM for the first, 3.5 nM for the second.

Going from `Cc1ccc2oc(C3(C)CCN(c4c(C#N)c(=O)n(C)c5cc(Br)ccc45)CC3)nc2c1` [Example 110, 7-bromo-1-methyl-4-[4-methyl-4-(5-methyl-1,3-benzoxazol-2-yl)piperidin-1-yl]-2-oxo-1,2-dihydroquinoline-3-carbonitrile] to `CCC1(c2nc3cc(C)ccc3o2)CCN(c2c(C#N)c(=O)n(C)c3cc(Br)ccc23)CC1` [Example 141, 7-bromo-4-[4-ethyl-4-(5-methyl-1,3-benzoxazol-2-yl)piperidin-1-yl]-1-methyl-2-oxo-1,2-dihydroquinoline-3-carbonitrile], the IC50 rises from 2.6 nM to 5.6 nM (2.2-fold). The first is the more potent here.

Going from `Cn1c(=O)c(C(N)=O)c(N2CCC(c3ccccc3)CC2)c2ccccc21` [Example 114, 1-methyl-2-oxo-4-(4-phenylpiperidin-1-yl)-1,2-dihydroquinoline-3-carboxamide] to `Cn1c(=O)c(C(N)=O)c(N2CCC(c3nc4ccccc4s3)CC2)c2ccc(N3CCCC3=O)cc21` [Example 116, 4-[4-(1,3-benzothiazol-2-yl)piperidin-1-yl]-1-methyl-2-oxo-7-(2-oxopyrrolidin-1-yl)-1,2-dihydroquinoline-3-carboxamide], the IC50 rises from 15 nM to 36 nM (2.4-fold).
